Experiments:
Assay in all cases: KINOMEscan competition binding
Conditions in all cases: compound 10.0 µM
CIT (human) = CIT (human) (UniProt O14578)
PLK4 (human) = PLK4 (human) (UniProt O00444)
RIPK1 (human) = RIPK1 (human) (UniProt Q13546)
[1] = biological target: JAK3 JH1 catalytic (human) (UniProt P52333)
RPS6KA6 KD2 (human) = RPS6KA6 KD2 (human) (UniProt Q9UK32)
LIMK1 (human) = LIMK1 (human) (UniProt P53667)
ADCK4 (human) = ADCK4 (human) (UniProt Q96D53)
MAP4K1 (human) = MAP4K1 (human) (UniProt Q92918)
NTRK1 (human) = NTRK1 (human) (UniProt P04629)
STK4 (human) = STK4 (human) (UniProt Q13043)
YES1 (human) = YES1 (human) (UniProt P07947)
TNNI3K (human) = TNNI3K (human) (UniProt Q59H18)
NTRK2 (human) = NTRK2 (human) (UniProt Q16620)
NTRK2 (human), sequence (Q16620 whole entry, looked up): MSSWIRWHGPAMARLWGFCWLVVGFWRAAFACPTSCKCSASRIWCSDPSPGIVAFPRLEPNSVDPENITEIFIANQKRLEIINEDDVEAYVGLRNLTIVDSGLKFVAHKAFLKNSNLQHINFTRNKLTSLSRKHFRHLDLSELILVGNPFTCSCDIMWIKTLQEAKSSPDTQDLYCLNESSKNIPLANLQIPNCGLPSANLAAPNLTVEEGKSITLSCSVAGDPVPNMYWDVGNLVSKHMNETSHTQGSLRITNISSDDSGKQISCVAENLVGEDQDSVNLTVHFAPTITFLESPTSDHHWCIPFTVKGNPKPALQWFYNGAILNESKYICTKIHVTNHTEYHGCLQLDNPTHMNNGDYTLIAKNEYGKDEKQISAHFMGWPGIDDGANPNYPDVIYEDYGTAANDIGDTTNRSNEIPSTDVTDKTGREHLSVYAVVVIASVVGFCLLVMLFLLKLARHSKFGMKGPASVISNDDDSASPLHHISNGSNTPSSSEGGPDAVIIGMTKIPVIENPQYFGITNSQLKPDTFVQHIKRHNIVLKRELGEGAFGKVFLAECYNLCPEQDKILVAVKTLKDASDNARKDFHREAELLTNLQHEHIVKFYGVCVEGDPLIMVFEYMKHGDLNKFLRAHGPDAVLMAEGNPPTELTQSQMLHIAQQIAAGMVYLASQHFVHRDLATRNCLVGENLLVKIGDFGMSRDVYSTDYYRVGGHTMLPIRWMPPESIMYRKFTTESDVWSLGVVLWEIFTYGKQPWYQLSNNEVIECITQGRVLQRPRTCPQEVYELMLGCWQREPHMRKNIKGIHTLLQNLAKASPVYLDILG

MARK3 (human) = MARK3 (human) (UniProt P27448)
MARK3 (human), sequence (P27448 whole entry, looked up): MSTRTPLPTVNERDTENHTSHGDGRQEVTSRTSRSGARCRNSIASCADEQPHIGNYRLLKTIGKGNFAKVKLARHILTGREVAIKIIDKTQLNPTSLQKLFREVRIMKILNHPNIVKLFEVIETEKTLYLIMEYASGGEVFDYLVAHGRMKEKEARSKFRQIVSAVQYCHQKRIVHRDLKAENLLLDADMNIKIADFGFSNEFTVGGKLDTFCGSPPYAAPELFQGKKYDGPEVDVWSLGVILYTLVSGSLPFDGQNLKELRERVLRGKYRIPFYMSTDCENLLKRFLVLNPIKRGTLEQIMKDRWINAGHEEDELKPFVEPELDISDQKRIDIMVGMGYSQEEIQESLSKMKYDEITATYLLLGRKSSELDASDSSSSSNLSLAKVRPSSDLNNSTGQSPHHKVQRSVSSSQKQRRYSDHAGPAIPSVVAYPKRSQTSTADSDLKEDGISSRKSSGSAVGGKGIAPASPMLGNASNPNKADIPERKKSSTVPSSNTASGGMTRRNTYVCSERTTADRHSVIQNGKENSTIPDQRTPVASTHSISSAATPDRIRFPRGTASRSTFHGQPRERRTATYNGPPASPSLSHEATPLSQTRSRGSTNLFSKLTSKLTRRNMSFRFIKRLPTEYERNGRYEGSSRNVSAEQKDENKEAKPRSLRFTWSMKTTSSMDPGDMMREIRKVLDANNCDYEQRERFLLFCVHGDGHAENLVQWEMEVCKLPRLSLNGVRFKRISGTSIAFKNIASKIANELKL

PAK7 (human) = PAK7 (human) (UniProt Q9P286)
PAK7 (human), sequence (Q9P286 whole entry, looked up): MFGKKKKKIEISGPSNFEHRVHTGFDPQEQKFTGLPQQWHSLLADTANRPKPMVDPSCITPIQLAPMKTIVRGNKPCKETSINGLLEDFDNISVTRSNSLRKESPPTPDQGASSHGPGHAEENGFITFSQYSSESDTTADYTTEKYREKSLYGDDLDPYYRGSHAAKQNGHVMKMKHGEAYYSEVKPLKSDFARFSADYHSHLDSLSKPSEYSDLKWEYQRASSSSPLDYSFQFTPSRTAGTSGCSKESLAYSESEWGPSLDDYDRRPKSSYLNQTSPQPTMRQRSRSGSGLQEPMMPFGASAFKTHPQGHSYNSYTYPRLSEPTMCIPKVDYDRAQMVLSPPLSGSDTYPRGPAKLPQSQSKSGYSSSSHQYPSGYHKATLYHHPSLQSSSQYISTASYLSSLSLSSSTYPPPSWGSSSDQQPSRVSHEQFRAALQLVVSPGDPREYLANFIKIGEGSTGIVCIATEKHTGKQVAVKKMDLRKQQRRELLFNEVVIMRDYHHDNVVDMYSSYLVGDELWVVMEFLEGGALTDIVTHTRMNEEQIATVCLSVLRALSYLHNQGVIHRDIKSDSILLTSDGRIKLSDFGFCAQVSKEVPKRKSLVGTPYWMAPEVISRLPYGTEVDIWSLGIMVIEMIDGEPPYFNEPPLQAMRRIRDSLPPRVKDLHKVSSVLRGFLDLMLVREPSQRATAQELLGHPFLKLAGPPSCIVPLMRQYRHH

CSNK1G3 (human) = CSNK1G3 (human) (UniProt Q9Y6M4)
IKBKB (human) = IKBKB (human) (UniProt O14920)
DCLK1 (human) = DCLK1 (human) (UniProt O15075)
CHEK2 (human) = CHEK2 (human) (UniProt O96017)
MAPK8 (human) = MAPK8 (human) (UniProt P45983)
SLK (human) = SLK (human) (UniProt Q9H2G2)
PRKCH (human) = PRKCH (human) (UniProt P24723)
PRKX (human) = PRKX (human) (UniProt P51817)
TLK2 (human) = TLK2 (human) (UniProt Q86UE8)
KDR (human) = KDR (human) (UniProt P35968)
PLK1 (human) = PLK1 (human) (UniProt P53350)
PLK1 (human), sequence (P53350 whole entry, looked up): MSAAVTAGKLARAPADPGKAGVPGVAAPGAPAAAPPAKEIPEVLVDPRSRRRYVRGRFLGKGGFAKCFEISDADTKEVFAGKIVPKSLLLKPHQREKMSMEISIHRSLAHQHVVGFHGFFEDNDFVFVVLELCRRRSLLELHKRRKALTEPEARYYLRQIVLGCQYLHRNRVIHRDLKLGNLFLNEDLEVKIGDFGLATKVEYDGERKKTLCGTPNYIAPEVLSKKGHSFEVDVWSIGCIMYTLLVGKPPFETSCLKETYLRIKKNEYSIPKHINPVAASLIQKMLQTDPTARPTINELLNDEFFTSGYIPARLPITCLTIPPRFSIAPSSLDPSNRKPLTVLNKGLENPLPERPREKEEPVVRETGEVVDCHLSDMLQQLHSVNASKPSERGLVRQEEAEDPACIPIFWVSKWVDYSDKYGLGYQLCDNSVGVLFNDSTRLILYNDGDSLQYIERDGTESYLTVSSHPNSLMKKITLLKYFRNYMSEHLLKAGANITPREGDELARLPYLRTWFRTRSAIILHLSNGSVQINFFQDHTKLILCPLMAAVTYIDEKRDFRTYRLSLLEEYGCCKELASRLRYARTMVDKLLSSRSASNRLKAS

EPHA1 (human) = EPHA1 (human) (UniProt P21709)
SYK (human) = SYK (human) (UniProt P43405)
EPHB3 (human) = EPHB3 (human) (UniProt P54753)
CSNK1G2 (human) = CSNK1G2 (human) (UniProt P78368)
CSNK1G2 (human), sequence (P78368 whole entry, looked up): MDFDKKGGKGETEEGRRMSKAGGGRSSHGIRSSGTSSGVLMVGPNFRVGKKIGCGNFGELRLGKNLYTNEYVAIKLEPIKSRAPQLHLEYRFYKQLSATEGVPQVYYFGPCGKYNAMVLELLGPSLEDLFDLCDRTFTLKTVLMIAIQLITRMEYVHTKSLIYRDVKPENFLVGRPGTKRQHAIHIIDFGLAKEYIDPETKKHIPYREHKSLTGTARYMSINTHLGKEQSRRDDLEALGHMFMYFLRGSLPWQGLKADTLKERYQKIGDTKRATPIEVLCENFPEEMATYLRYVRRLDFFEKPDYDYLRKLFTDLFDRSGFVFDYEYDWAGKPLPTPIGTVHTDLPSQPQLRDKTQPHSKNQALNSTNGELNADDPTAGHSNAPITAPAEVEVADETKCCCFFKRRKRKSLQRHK

CAMK2D (human) = CAMK2D (human) (UniProt Q13557)
PRKCD (human) = PRKCD (human) (UniProt Q05655)
NTRK3 (human) = NTRK3 (human) (UniProt Q16288)
PRKD1 (human) = PRKD1 (human) (UniProt Q15139)

PLK4 (human), sequence (O00444 whole entry, looked up): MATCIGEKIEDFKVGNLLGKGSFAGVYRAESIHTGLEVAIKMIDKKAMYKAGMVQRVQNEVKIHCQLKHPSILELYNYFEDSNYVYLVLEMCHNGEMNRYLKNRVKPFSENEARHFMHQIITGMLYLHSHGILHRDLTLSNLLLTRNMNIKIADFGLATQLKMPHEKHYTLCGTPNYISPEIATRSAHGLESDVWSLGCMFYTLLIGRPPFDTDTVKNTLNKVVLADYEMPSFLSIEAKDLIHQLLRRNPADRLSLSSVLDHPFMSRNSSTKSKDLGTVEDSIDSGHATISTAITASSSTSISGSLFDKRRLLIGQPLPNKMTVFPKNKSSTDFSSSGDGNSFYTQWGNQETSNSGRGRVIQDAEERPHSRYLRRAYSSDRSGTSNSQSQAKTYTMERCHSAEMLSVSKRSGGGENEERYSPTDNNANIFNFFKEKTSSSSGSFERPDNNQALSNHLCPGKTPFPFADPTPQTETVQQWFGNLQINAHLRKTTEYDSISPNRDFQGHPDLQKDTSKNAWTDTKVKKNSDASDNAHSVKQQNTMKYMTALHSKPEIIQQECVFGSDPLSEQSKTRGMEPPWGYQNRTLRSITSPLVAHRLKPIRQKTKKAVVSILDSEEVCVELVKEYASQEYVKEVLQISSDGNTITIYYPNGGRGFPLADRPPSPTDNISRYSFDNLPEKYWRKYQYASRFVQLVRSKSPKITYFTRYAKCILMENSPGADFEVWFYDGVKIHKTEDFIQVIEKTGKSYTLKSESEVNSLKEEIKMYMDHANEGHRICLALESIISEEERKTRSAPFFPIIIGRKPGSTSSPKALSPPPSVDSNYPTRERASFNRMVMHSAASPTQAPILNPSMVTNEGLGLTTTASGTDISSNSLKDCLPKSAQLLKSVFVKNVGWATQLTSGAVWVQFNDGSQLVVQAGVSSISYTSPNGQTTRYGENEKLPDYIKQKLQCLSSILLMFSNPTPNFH
RPS6KA6 KD2 (human), sequence (Q9UK32 whole entry, looked up): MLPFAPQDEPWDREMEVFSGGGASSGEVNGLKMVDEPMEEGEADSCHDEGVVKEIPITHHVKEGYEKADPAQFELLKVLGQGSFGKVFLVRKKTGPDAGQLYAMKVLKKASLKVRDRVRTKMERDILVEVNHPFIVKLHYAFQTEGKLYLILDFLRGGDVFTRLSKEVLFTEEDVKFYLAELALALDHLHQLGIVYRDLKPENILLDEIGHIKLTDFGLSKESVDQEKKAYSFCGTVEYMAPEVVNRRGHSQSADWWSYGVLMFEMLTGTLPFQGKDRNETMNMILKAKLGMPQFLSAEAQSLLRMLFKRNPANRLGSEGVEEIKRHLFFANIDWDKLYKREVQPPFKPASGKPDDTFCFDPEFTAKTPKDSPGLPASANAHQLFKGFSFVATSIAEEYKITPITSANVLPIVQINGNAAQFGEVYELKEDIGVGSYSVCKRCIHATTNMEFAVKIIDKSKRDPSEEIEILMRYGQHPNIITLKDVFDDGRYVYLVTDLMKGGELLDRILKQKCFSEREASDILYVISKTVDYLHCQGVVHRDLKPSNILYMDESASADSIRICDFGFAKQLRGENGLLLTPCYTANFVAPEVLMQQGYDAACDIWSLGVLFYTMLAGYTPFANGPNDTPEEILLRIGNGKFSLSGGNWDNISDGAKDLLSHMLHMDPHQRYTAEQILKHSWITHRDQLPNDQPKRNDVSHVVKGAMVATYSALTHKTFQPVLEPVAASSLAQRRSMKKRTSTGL

kinase still bound, per cent of control (CIT (human)) [%] | kinase still bound, per cent of control (PLK4 (human)) [%] | kinase still bound, per cent of control (RIPK1 (human)) [%] | kinase still bound, per cent of control [1] [%] | kinase still bound, per cent of control (RPS6KA6 KD2 (human)) [%] | kinase still bound, per cent of control (LIMK1 (human)) [%] | kinase still bound, per cent of control (ADCK4 (human)) [%] | kinase still bound, per cent of control (MAP4K1 (human)) [%] | kinase still bound, per cent of control (NTRK1 (human)) [%] | kinase still bound, per cent of control (STK4 (human)) [%] | kinase still bound, per cent of control (YES1 (human)) [%] | kinase still bound, per cent of control (TNNI3K (human)) [%] | kinase still bound, per cent of control (NTRK2 (human)) [%] | kinase still bound, per cent of control (MARK3 (human)) [%] | kinase still bound, per cent of control (PAK7 (human)) [%] | kinase still bound, per cent of control (CSNK1G3 (human)) [%] | kinase still bound, per cent of control (DCLK1 (human)) [%] | kinase still bound, per cent of control (MAPK8 (human)) [%] | kinase still bound, per cent of control (SLK (human)) [%] | kinase still bound, per cent of control (PRKCH (human)) [%] | other results | SMILES
100 | 2.8 | 100 | 100 | 9 | 100 | 0 | 100 | 100 | 100 | 100 | 100 | 100 | 100 | 100 | 100 | 18 | 4.1 | 2.6 | 100 | kinase still bound, per cent of control (IKBKB (human)): 100%; kinase still bound, per cent of control (CHEK2 (human)): 14%; kinase still bound, per cent of control (PRKX (human)): 100%; kinase still bound, per cent of control (TLK2 (human)): 100%; kinase still bound, per cent of control (KDR (human)): 100%; kinase still bound, per cent of control (PLK1 (human)): 21%; kinase still bound, per cent of control (EPHA1 (human)): 15%; kinase still bound, per cent of control (SYK (human)): 100%; kinase still bound, per cent of control (EPHB3 (human)): 100%; kinase still bound, per cent of control (CSNK1G2 (human)): 100%; kinase still bound, per cent of control (CAMK2D (human)): 100%; kinase still bound, per cent of control (PRKCD (human)): 100%; kinase still bound, per cent of control (NTRK3 (human)): 100%; kinase still bound, per cent of control (PRKD1 (human)): 100% | COc1cc(N2CCC(C(N)=O)CC2)ccc1Nc1nc(N)c(Cl)c(Nc2ccccc2S(=O)(=O)C(C)C)n1
0.7 | 100 | 100 | 8.8 | 100 | 2.8 | 100 | 4.6 | 27 | 100 | 0.45 | 0.6 | 24 | 100 | 100 | 100 | 100 | 100 | 0.15 | 100 | kinase still bound, per cent of control (PRKX (human)): 100%; kinase still bound, per cent of control (TLK2 (human)): 100%; kinase still bound, per cent of control (KDR (human)): 4.5%; kinase still bound, per cent of control (PLK1 (human)): 100%; kinase still bound, per cent of control (EPHA1 (human)): 0.75%; kinase still bound, per cent of control (SYK (human)): 4%; kinase still bound, per cent of control (EPHB3 (human)): 0%; kinase still bound, per cent of control (CSNK1G2 (human)): 100%; kinase still bound, per cent of control (CAMK2D (human)): 100%; kinase still bound, per cent of control (PRKCD (human)): 100%; kinase still bound, per cent of control (NTRK3 (human)): 13%; kinase still bound, per cent of control (PRKD1 (human)): 100% | COc1ccc(N(C(=O)Oc2cc(C(=O)Nc3cccc(C(F)(F)F)c3)ccc2C)c2ccnc(Nc3ccc(N4CCN(C)CC4)cc3)n2)c(OC)c1
100 | 100 | 100 | 100 | 100 | 100 | 100 | 25 | 20 | 100 | 12 | 100 | 23 | 100 | 100 | 100 | 31 | 100 | 31 | 100 | kinase still bound, per cent of control (IKBKB (human)): 100%; kinase still bound, per cent of control (CHEK2 (human)): 100%; kinase still bound, per cent of control (PRKX (human)): 100%; kinase still bound, per cent of control (TLK2 (human)): 100%; kinase still bound, per cent of control (KDR (human)): 100%; kinase still bound, per cent of control (PLK1 (human)): 100%; kinase still bound, per cent of control (EPHA1 (human)): 100%; kinase still bound, per cent of control (SYK (human)): 100%; kinase still bound, per cent of control (EPHB3 (human)): 100%; kinase still bound, per cent of control (CSNK1G2 (human)): 100%; kinase still bound, per cent of control (CAMK2D (human)): 100%; kinase still bound, per cent of control (PRKCD (human)): 100%; kinase still bound, per cent of control (NTRK3 (human)): 100%; kinase still bound, per cent of control (PRKD1 (human)): 100% | COc1cc(C)c(Sc2cnc(NC(=O)c3ccc(CNC(C)C(C)C)cc3)s2)cc1C(=O)N1CCN(C(C)=O)CC1 (stereo not given)

Source: the kinase profiling compilation of Christmann-Franck et al. (2016)
